According to US6447749B1, “Perfluoro-alkyl containing dye molecules and galencial formulations” (Schering Aktiengesellschaft, priority 1999, dated 2002):

Tested on: regional lymph nodes
Assay: Coloring of regional lymph nodes after interstitial administration
Type: in vivo
Conditions: guinea pig; formulation 5 mol % of dye 8/95 mol % Gd complex; after interstitial/intracutaneous administration, lymph nodes prepared ex vivo; listed as 8, sodium salt
Description: After the interstitial near-infrared lymphography was completed, the regional lymph nodes were prepared in the area of the administration site. […] This coloring can be used for the intraoperative diagnosis for the identification of the draining lymph nodes of a certain tissue area and for differentiating the lymph nodes from the surrounding tissue.

CC1(C)C(=CC=CC=CC=CC2=[N+](CCCCS(=O)(=O)[O-])c3ccc(C(=O)N(CCOCCC(F)(F)C(F)(F)C(F)(F)C(F)(F)C(F)(F)C(F)(F)C(F)(F)C(F)(F)F)CC(O)CO)cc3C2(C)C)N(CCCCS(=O)(=O)[O-])c2ccccc21.[Na+] (stereo not shown) [Dye 10, 5-{N-[2-(3,3,4,4,5,5,6,6,7,7,8,8,9,9,10,10,10-heptadecafluorodecyloxy)ethyl]-N-(2,3-dihydroxypropyl)aminocarbonyl}-2-{7-[1,3-dihydro-3,3-dimethyl-1-(4-sulfobutyl)-2H-indol-2-ylidene]-1,3,5-heptatrienyl}-3,3-dimethyl-1-(4-sulfobutyl)-3H-indolium, internal salt, sodium salt]
coloring of regional (inguinal) lymph nodes: clearly visible green-coloring
